From US5439899A, “Cosalane and related compounds having activity against aids and aids-related infections” (priority 1993, dated 1995)
“Also recorded” adds a separate entry of the source.

What was measured:
HIV [1] = test: NCI in vitro anti-HIV screen (XTT soluble-formazan assay, protection of HIV-infected CEM cells); type: cell-based; settings: for anti-HIV effect (statement): NCI anti-HIV screen, in vitro, CEM cells
Description: The National Cancer Institute's procedure for testing for agents active against Human Immunodeficiency Virus (HIV) (Weislow, O. W. et al, "New soluble-formazan assay for HIV-1 cytopathic effects: application to high-flux screening of synthetic and natural products for AIDS-antiviral activity," J. Natl. Cancer Inst., 81, 577-586, 1989) is designed to detect agents acting at any stage of the virus reproductive cycle. The assay includes the killing of T4 lymphocytes by HIV. Pursuant to the test, small amounts of HIV are added to cells, and a complete cycle of virus reproduction is necessary to obtain the required cell killing. Agents that interact with virions, cells, or virus gene-products to interfere with viral activities will protect cells from cytolysis. The system is thus designed to detect anti-HIV activity. However, compounds that degenerate or are rapidly metabolized in the culture conditions may not show activity in this screen. All tests are compared with at least one positive (e.g., AZT-treated) control done at the same time under identical conditions.
(§1) 1. The candidate agent is dissolved in dimethyl sulfoxide (unless otherwise instructed), then diluted 1:200 in cell culture medium. Further dilutions (half-log10) are prepared before adding to 96-well microtiter plates.
(§2) 2. T4 lymphocytes (CEM cell line) are exposed to HIV at a virus-to-cell ratio of approximately 0.05 and are plated along with non-infected control cells into drug-containing wells or wells with medium alone.
(§3) 3. Cultures are incubated at 37° in a 5% carbon dioxide atmosphere for 6 days.
(§4) 4. The tetrazolium salt, XTT, is added to all wells, and cultures are incubated to allow formazan color development by viable cells.
(§5) 5. […] are analyzed spectrophotometrically to quantitate formazan production and, in addition, are viewed microscopically for detection of viable cells and confirmation of protective activity.
(§6) 6. Drug-treated virus-infected cells are compared with drug-treated non-infected cells and with other appropriate controls (untreated infected and untreated non-infected cells, drug-containing wells without cells, etc.) on the same plate.
(§7) 7. Data are reviewed in comparison with other tests performed at the same time, and a determination about activity is made.
Approximate values for 50% effective concentration (EC50) (protection in infected cells), 50% inhibitory concentration (IC50) and the therapeutic index (IC50 /EC50) have been calculated for each test and are provided in the tables of each Example.
Examples 1, 6 and 8 compounds, respectively, against the measured test values expressed as a percentage of the uninfected, untreated control values. The solid line depicts the percentage of surviving HIV-infected cells treated with sample (at the indicated concentration) relative to uninfected, untreated controls. The solid line expresses the in vitro anti-HIV activity of the compound of the tested compound. The dashed line depicts the percentage of surviving uninfected cells treated with the compound of the Example relative to the same uninfected, untreated controls. The dashed line expresses the in vitro growth inhibitory properties of the compound of the Example. The viral cytopathic effect of a compound of each Example is indicated by a combination of dashes and dots. […] Survival values of this parameter less then 50% are considered acceptable in the current protocol.

HIV-1 p24 = test: p24 antigen-capture assay; type: cell-based; settings: in vitro
Procedure: (§8) Activity was also examined by determination of p24 and reverse transcriptase concentrations.
To determine p24, a p24 antigen-capture assay was used. Culture fluids harvested from drug test plates or other sources were diluted 1:100 in 10% triton X-100 and stored frozen at -70° C. 200 μL aliquots of the triton treated samples were added in duplicate to microtiter wells previously coated with rabbit polyclonal anti-HIV-1 p24 serum and incubated at room temperature overnight. After washing and blotting, 100 μL of biotinylated polyclonal anti-HIV p-24 was added to each of the appropriate wells, and the plates were re-incubated at 37° C. for 60 minutes. A solution of streptavidin-horseradish peroxidase was added after additional washing and blotting. The contents of each plate were mixed and reincubated for 15 minutes at room temperature and, after washing and blotting, the o-phenylenediamine dihydrochloride substrate was added in 100 μL aliquots. Color was allowed to develop in the dark room at room temperature for 30 minutes, and the reaction was halted by the addition of 4 N H2 SO4. Optical density was measured at 490 nm, and the concentration of p24 was determined by comparison with a standard curve of known concentrations of p24. Eislow, O., et al., J. Nat'l Cancer Inst., 81 (8):577-86 (1989).

reverse transcriptase = reverse transcriptase assay of cell-free supernatant; type: cell-based, HIV; settings: in vitro
Procedure: as §8
Reverse transcriptase assays were performed according to the method of Hoffman et al, Virology, 147, 326-335 (1985), with minor modifications. Briefly, 15 µl of cell-free supernatant was mixed with 10 μl of RT reaction buffer. The total 25 μl reaction mixture consisted of 2.5 μCi of tritated thymidine triphosphate (TTP) (ICN, 80 Ci/mmol), poly rA (50 ng/ml):oligo dT (10 ng/ml) template:primer (Pharmacia), 10 mM Tris, pH 7.6, 8 mM magnesium chloride, 10 mM dithiothreitol (DTT), and, in the standard reaction, 0.5% Triton X-100. Assays were performed in the absence of added EGTA unless indicated. When EGTA (Sigma) was added it was at a concentration of 1 mM. The reactions were incubated for 60 minutes at 37° C. The reaction volume was then spotted onto DE81 chromatography paper (Whatman), washed extensively in 5% dibasic sodium phosphate, and counted for incorporated radioactivity in a toluene-based scintillation cocktail. Assays were also performed to measure the presence of a nuclease activity associated with HIV virions. […] The HIV virion sample was added to the AMV RT reaction product and the amount of radioactivity able to bind to DE81 paper was monitored after varying times of incubation at 37° C. […]

[2] = test system: T4 lymphocytes (CEM cell line); test: NCI in vitro anti-HIV screen, growth inhibition of uninfected CEM cells (XTT); type: cell-based; settings: Homo sapiens, CCRF-CEM, 144 h, read-out: IC50 (50% inhibitory concentration)
Procedure: The assay includes the killing of T4 lymphocytes by HIV. Pursuant to the test, small amounts of HIV are added to cells, and a complete cycle of virus reproduction is necessary to obtain the required cell killing. Agents that interact with virions, cells, or virus gene-products to interfere with viral activities will protect cells from cytolysis. The system is thus designed to detect anti-HIV activity. However, compounds that degenerate or are rapidly metabolized in the culture conditions may not show activity in this screen. All tests are compared with at least one positive (e.g., AZT-treated) control done at the same time under identical conditions.
as §1, §2, §3, §4, §5, §6, §7
Survival values of this parameter less then 50% are considered acceptable in the current protocol.

HIV [3] = test: in vitro testing for infectious particles; type: cell-based

## CC(C)CCC[C@@H](C)[C@H]1CC[C@H]2[C@@H]3CC[C@H]4C[C@@H](CCC=C(c5cc(Cl)c(O)c(C(=O)O)c5)c5cc(Cl)c(O)c(C(=O)O)c5)CC[C@]4(C)[C@H]3CC[C@]12C [Formula IV, 1,1-di(3'-ammoniumcarboxy-5'-chloro-4'-hydroxy)phenyl-4-(3β)-cholestanyl-1-butene]
HIV [1]
  anti-HIV effect (statement): greatest effect on inhibiting HIV-infected cells, while having a lesser effect on uninfected cells
HIV [1]; listed as Cosalane
  anti-HIV effect (statement): highly effective anti-HIV agent in vitro; also recorded: most effective compounds studied in terms of prevention of the cytopathic effect of HIV in CEM lymphocytes
HIV [1]; read-out: EC50 (50% effective concentration, protection in infected cells), HIV-infected CEM cells, 6 days, XTT, approximate values, one value per run
  EC50: 6.7 µM
HIV-1 p24
  p24 (FIG. 3): indicating anti-HIV activity
Reverse transcriptase
  reverse transcriptase activity (FIG. 4): indicating anti-HIV activity
[2]
  IC50: > 310 µM
HIV [3]
  infectious particles (FIG. 2): indicating anti-HIV activity
